Read-outs that look alike come from different tables or passages of the source.
Key:
[1] = target: T1, 5-HT3 receptor (Rattus norvegicus, UniProt P35563); assay: 5-HT3 receptor binding experiment (3H-quipazine binding assay, rat cerebral cortical membrane fraction); settings: for inhibition at 0.01 µM / inhibition at 0.001 µM: read-out: Binding inhibitory rate
T1 sequence (P35563 24-483): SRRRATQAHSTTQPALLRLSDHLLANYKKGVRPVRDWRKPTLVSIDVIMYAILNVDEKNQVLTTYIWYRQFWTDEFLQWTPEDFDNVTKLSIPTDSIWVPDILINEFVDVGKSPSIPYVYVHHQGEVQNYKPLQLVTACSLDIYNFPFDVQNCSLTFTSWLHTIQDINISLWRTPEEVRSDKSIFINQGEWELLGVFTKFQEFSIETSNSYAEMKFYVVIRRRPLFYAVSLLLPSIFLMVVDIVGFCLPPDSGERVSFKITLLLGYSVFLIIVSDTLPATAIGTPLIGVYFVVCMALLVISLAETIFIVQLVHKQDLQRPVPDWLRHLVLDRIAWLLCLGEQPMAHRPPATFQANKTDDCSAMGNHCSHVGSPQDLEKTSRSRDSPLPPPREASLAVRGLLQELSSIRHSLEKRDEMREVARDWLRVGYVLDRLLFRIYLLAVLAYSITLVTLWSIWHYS

[2] = tested on: female beagles; assay: Antiemetic effects against cisplatin-induced vomiting; assay type: in vivo, female beagles (dog); settings: for Number of vomits / Latency of the first vomit: test compound 0.1 mg/kg i.v. 75 minutes after cisplatin 3 mg/kg i.v.; for Number of vomits: 4 hours observation; for Vomiting after cisplatin (result in words): two beagles, test compound 0.1 mg/kg i.v., cisplatin 3 mg/kg i.v.
Source text: Using four 9-13 month-old female beagles having a body weight of 7.5-9.6 Kg (furnished by Toyo Research Animal Inc.), the antiemetic effects of certain compounds of the present invention were investigated.
As test compounds, the compounds obtained in Examples 8 and 9, respectively, were individually weighed and dissolved in 0.01N hydrochloric acid. The resultant solutions were neutralized to about pH 7 with 0.01N NaOH to provide aqueous solutions for administration. Cisplatin ("Briplatin Injection", product of Bristol-Myers Co.) was used as an emetic.
To see the emetic effects of cisplatin to each animal, vomiting after the administration of cisplatin was first observed (control group). Next, seven weeks later, each group consisting of two beagles was intravenously administered with 0.1 mg/kg (0.2 ml/kg) of the compound of Example 8 or 9 upon an elapsed time of 75 minutes after the administration of cisplatin, and the group administered with the compound of Example 8 and the group administered with the compound of Example 9 were both observed for vomit. Cisplatin was intravenously administered at the dosage of 3 mg/kg (in the volume of 6 ml/kg) and the administration rate of 10 ml/min.
The laboratory animals were fasted for about 24 hours prior to administration of cisplatin and, one hour after the administration of cisplatin, were fed. Vomit was determined depending on whether vomitus was discharged out of the mouth. With respect to the number of vomits and their latency, observation was continued for 4 hours after the administration of cisplatin.
Based on the observation, the latency of the first vomit of and the number of vomits of each laboratory animal after the administration of cisplatin are shown in Table 3-A and Table 3-B.

Structure (SMILES)	IC50 [1]	other results
O=C(O)c1cnn2ccccc12 [Control* 1, Pyrazolo[1,5a]pyridine3-carboxylic acid, reference compound]	> 10000 nM	
Cc1nn2ccccc2c1C(=O)O [Control* 2, 2Methylpyrazolo[1,5a]pyridine3-carboxylic acid, reference compound]	> 10000 nM	
Cc1cccn2ncc(C(=O)O)c12 [Control* 3, 4Methylpyrazolo[1,5a]pyridine3-carboxylic acid, reference compound]	> 10000 nM	
Cc1ccn2ncc(C(=O)O)c2c1 [Control* 4, 5Methylpyrazolo[1,5a]pyridine3-carboxylic acid, reference compound]	> 10000 nM	
Cc1ccc2c(C(=O)O)cnn2c1 [Control* 5, 6Methylpyrazolo[1,5a]pyridine3-carboxylic acid, reference compound]	> 10000 nM	
Cc1cccc2c(C(=O)O)cnn12 [Control* 6, 7Methylpyrazolo[1,5a]pyridine3-carboxylic acid, reference compound]	> 10000 nM	
Cc1nn2c(C)cccc2c1C(=O)O [Control* 7, 2,7Dimethylpyrazolo[1,5a]pyridine3-carboxylic acid, reference compound]	> 10000 nM	
O=C(NC1CN2CCC1CC2)c1cnn2ccccc12 (stereo not drawn) [Example 1, N-(1-azabicyclo[2.2.2]oct-3-yl)-3-pyrazolo[1,5-a]pyridinecarboxamide]	41.1 nM	inhibition at 0.01 µM [1]: 50%
Cc1ccn2ncc(C(=O)NC3CN4CCC3CC4)c2c1 (stereo not drawn) [Example 2, 5-methyl-N-(1-azabicyclo[2.2.2]oct-3-yl)-3-pyrazolo[1,5-a]pyridinecarboxamide]	43.2 nM	inhibition at 0.01 µM [1]: 31%
Cc1cccc2c(C(=O)NC3CN4CCC3CC4)cnn12 (stereo not drawn) [Example 4, 7-methyl-N-(1-azabicyclo[2.2.2]oct-3-yl)-3-pyrazolo[1,5-a]pyridinecarboxamide]	7.2 nM	inhibition at 0.01 µM [1]: 82%
Cc1nn2ccccc2c1C(=O)NC1CN2CCC1CC2 (stereo not drawn) [Example 5, 2-methyl-N-(1-azabicyclo[2.2.2]oct-3-yl)-3-pyrazolo[1,5-a]pyridinecarboxamide]	18.9 nM	inhibition at 0.01 µM [1]: 50%
CN1[C@@H]2CC[C@H]1C[C@@H](OC(=O)c1cnn3ccccc13)C2 [Example 6, endo-8-methyl-8-azabicyclo[3.2.1]-oct-3-yl pyrazolo[1,5-a]pyridine-3-carboxylate]	16.5 nM	inhibition at 0.001 µM [1]: 9%; inhibition at 0.01 µM [1]: 37%
Cc1cccc2c(C(=O)O[C@H]3C[C@H]4CC[C@@H](C3)N4C)cnn12 [Example 7, endo-8-methyl-8-azabicyclo[3.2.1]-oct-3-yl 7-methylpyrazolo[1,5-a]pyridine-3-carboxylate]	1 nM	inhibition at 0.001 µM [1]: 43%; inhibition at 0.01 µM [1]: 77%
Cc1cccc2c(C(=O)N[C@H]3C[C@H]4CC[C@@H](C3)N4C)cnn12 [Example 8, endo-8-methyl-8-azabicyclo[3.2.1]-oct-3-yl 7-methyl-pyrazolo[1,5-a]pyridine-3-carboxamide]	19.1 nM	Number of vomits ([2]; Dog No. 1): 0 times; Number of vomits ([2]; Dog No. 2): 0 times; Vomiting after cisplatin (result in words) [2]: No vomit
Cc1cccc2c(C(=O)N[C@H]3C[C@H]4CCC[C@@H](C3)N4C)cnn12 [Example 9, endo-9-methyl-9-azabicyclo[3.3.1]-non-3-yl 7-methyl-pyrazolo[1,5-a]pyridine-3-carboxamide]		IC50 ([1]; read-out: IC50 value): 53.7 nM; Latency of the first vomit ([2]; Dog No. 3): 132 min; Number of vomits ([2]; Dog No. 3): 12 times; Latency of the first vomit ([2]; Dog No. 4): 173 min; Vomiting after cisplatin (result in words) [2]: number of vomits therefore decreased in one case
Cc1cccc2c(C(=O)N[C@@H]3CN4CCC3CC4)cnn12 [Example 10, (S)-(-)-N-(1-azabicyclo[2.2.2]oct-3-yl)-7-methylpyrazolo[1,5-a]pyridine-3-carboxamide]	0.28 nM	
Cc1cccc2c(C(=O)N[C@H]3CN4CCC3CC4)cnn12 [Example 11, (R)-(+)-N-(1-azabicyclo[2.2.2]oct-3-yl)-7-methylpyrazolo[1,5-a]pyridine-3-carboxamide]	44.9 nM	
Cc1nn2ccccc2c1C(=O)O[C@H]1C[C@H]2CC[C@@H](C1)N2C [Example 15, endo-8-methyl-8-azabicyclo[3.2.1]-oct-3-yl 2-methyl-pyrazolo[1,5-a]pyridine-3-carboxylate]	2.7 nM	
Cc1cccn2ncc(C(=O)O[C@H]3C[C@H]4CC[C@@H](C3)N4C)c12 [Example 16, endo-8-methyl-8-azabicyclo[3.2.1]-oct-3-yl 4-methyl-pyrazolo[1,5-a]pyridine-3-carboxylate]	3.5 nM	
Cc1ccn2ncc(C(=O)O[C@H]3C[C@H]4CC[C@@H](C3)N4C)c2c1 [Example 17, endo-8-methyl-8-azabicyclo[3.2.1]-oct-3-yl 5-methylpyrazolo[1,5-a]pyridine-3-carboxylate]	25.8 nM	
Cc1nn2c(C)cccc2c1C(=O)NC1CN2CCC1CC2 (stereo not drawn) [Example 19]	5.2 nM	

From patent US5200415A, “Pyrazolo[1,5-a]pyridine-3-carboxylic acid derivatives and their pharmaceutical use” (Asahi Kasei Kogyo Kabushiki Kaisha, priority 1990, dated 1993)
